In PubChem BioAssay (NCI) one finds TGI and GI50 data, which are given here for 13 compounds.

Test systems include UO-31 renal; LOX IMVI melanoma; KM12 colon; ACHN renal; NCI-H522 lung; UACC-62 melanoma; SF-295 CNS; SK-OV-3 ovarian; MOLT-4 leukemia; K-562 leukemia.
Assay in all cases: DTP human tumour cell line panel, 48 h

The structures appear in SMILES notation.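 Protocol summary: plate cells (96-well), add compound at 5 concentrations, incubate 48 h, interpolate endpoints linearly. The concentration for 50% growth inhibition is given as GI50. TGI: concentration producing complete growth inhibition.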

One may read the TGI as the concentration giving total growth inhibition. Higher therefore signals lower sensitivity of the cells. Regarding `O=C1CSC(=S)N1c1ccc(F)cc1F`, the TGI is over 100 µM in the experiment with UO-31 renal; over 100 µM with LOX IMVI melanoma; over 100 µM in the experiment on KM12 colon; over 100 µM in the experiment on ACHN renal; 47.3 µM in the experiment with NCI-H522 lung; over 100 µM with UACC-62 melanoma. Moreover, the TGI in the experiment on SF-295 CNS and in the experiment on SK-OV-3 ovarian was over 100 µM each time.
As to `COC(=O)CSc1ccccc1`, the TGI in the experiment with MOLT-4 leukemia, in the experiment with UO-31 renal, with LOX IMVI melanoma, with KM12 colon, in the experiment with ACHN renal and in the experiment with UACC-62 melanoma was over 100 µM throughout. For the same compound, the TGI in the experiment on SF-295 CNS, in the experiment with K-562 leukemia and with SK-OV-3 ovarian was over 100 µM each time.
Consider `N#Cc1ccc(/C=N\N2C(=O)c3ccccc3C2=O)cc1`, for which the TGI with MOLT-4 leukemia, with UO-31 renal, in the experiment with LOX IMVI melanoma, in the experiment with KM12 colon, in the experiment on ACHN renal and in the experiment with UACC-62 melanoma was over 100 µM throughout. The TGI in the experiment on SF-295 CNS and in the experiment with K-562 leukemia was over 100 µM each time.
Consider `Cn1c(=O)nc2n(-c3ccc(F)cc3)c3ccccc3nc-2c1=O`, for which the TGI in the experiment with MOLT-4 leukemia was 62.8 µM; in the experiment on UO-31 renal it was over 100 µM; with KM12 colon, over 100 µM; in the experiment with ACHN renal, 49.7 µM; in the experiment on NCI-H522 lung, 35.4 µM; in the experiment with UACC-62 melanoma, 25 µM. The concentration for total growth inhibition (TGI) is 40.8 µM with SF-295 CNS, 45.8 µM with K-562 leukemia and over 100 µM in the experiment on SK-OV-3 ovarian.
As to `COC(=O)NNc1c([N+](=O)[O-])cnn(-c2ccccc2)c1=O`, the concentration for total growth inhibition (TGI) in the experiment on MOLT-4 leukemia is 2.61 µM; in the experiment on UO-31 renal, 15.9 µM; in the experiment with LOX IMVI melanoma, 3.2 µM; with KM12 colon, 16.9 µM; with ACHN renal it was 10.2 µM; in the experiment with NCI-H522 lung, 2.6 µM. For the same compound, the results for the TGI with UACC-62 melanoma, in the experiment on SF-295 CNS and with SK-OV-3 ovarian were 5.15 µM, 8.37 µM and 17 µM, respectively.
On to `COc1ccc2nc3cc(Cl)ccc3c(NCCC(=O)OCC(O)C(O)C(O[C@H](C)C(=O)NC(C)C(=O)NC(CCC(N)=O)C(=O)OCc3ccccc3)C(C=O)NC(C)=O)c2c1` (some centres not stated), for which the TGI in the experiment with MOLT-4 leukemia was determined as 44.2 µM; in the experiment on UO-31 renal it was 34.7 µM; in the experiment with KM12 colon it was 41.7 µM; with ACHN renal it was 32.2 µM; in the experiment with NCI-H522 lung, 28 µM; in the experiment on UACC-62 melanoma, 34 µM. The figures for the concentration for total growth inhibition (TGI) with SF-295 CNS, in the experiment on K-562 leukemia and in the experiment with SK-OV-3 ovarian were 34.3 µM, 68 µM and 33 µM, respectively.
For `COc1ccc2c(CC(=O)O)cc(=O)oc2c1`, the TGI in the experiment with MOLT-4 leukemia, in the experiment on UO-31 renal, with LOX IMVI melanoma, with KM12 colon, in the experiment on ACHN renal and with NCI-H522 lung was over 100 µM each time. Also, the TGI in the experiment with UACC-62 melanoma, in the experiment with SF-295 CNS and in the experiment with K-562 leukemia was over 100 µM each time.
On to `O=C(Nc1ccc(Cl)c(Cl)c1)C(=O)C(C1OC(=O)c2ccccc21)[N+](=O)[O-]` (configuration not stated), for which the total growth inhibition concentration (TGI) with MOLT-4 leukemia, in the experiment on UO-31 renal, with LOX IMVI melanoma, in the experiment on KM12 colon, in the experiment on ACHN renal and with NCI-H522 lung was over 100 µM throughout. In addition, the concentration for total growth inhibition (TGI) in the experiment on UACC-62 melanoma, with SF-295 CNS and in the experiment on SK-OV-3 ovarian was over 100 µM in each case.
For orientation: GI50 means the concentration at which growth is held to half of that of the control. As to `COc1ccc(C(=O)C(c2ccc(OC)cc2)C2C(=O)Oc3ccccc32)cc1` (configuration not stated), the GI50 in the experiment with MOLT-4 leukemia, with KM12 colon, with ACHN renal, in the experiment with NCI-H522 lung, in the experiment with UACC-62 melanoma and in the experiment with SF-295 CNS was over 100 µM throughout. In addition, the GI50 with K-562 leukemia and in the experiment on SK-OV-3 ovarian was over 100 µM throughout. Further, the TGI was over 100 µM in the experiment with MOLT-4 leukemia; 51.1 µM in the experiment with UO-31 renal; over 100 µM with KM12 colon; over 100 µM with ACHN renal; over 100 µM in the experiment with NCI-H522 lung; over 100 µM in the experiment on UACC-62 melanoma. Besides, the TGI in the experiment with SF-295 CNS, in the experiment with K-562 leukemia and in the experiment on SK-OV-3 ovarian was over 100 µM throughout.
Consider `COc1ccc(C(=O)/C(=N/Nc2ccccc2)c2ccc(OC)cc2)cc1`, for which the concentration for total growth inhibition (TGI) with MOLT-4 leukemia, in the experiment with UO-31 renal, with KM12 colon, in the experiment on ACHN renal, in the experiment with NCI-H522 lung and in the experiment on UACC-62 melanoma was over 100 µM throughout. The TGI in the experiment on SF-295 CNS, with K-562 leukemia and in the experiment on SK-OV-3 ovarian was over 100 µM each time.
Consider `COc1ccc(NC(=O)CC/C(CC(=O)c2ccccc2Cl)=N\Nc2nnc(C)n2N)cc1`, for which the TGI in the experiment with MOLT-4 leukemia, in the experiment with UO-31 renal, in the experiment with LOX IMVI melanoma, in the experiment on KM12 colon, in the experiment with ACHN renal and in the experiment with UACC-62 melanoma was over 100 µM each time. Further, the TGI with SF-295 CNS, in the experiment on K-562 leukemia and with SK-OV-3 ovarian was over 100 µM in each case.
As to `CN(C)c1ccc(/C=C/C(=O)c2ccccc2)cc1Br`, the TGI in the experiment on MOLT-4 leukemia came out at 69 µM; in the experiment with UO-31 renal, 33.3 µM; in the experiment on KM12 colon it was 33.3 µM; with ACHN renal it was 51.1 µM; in the experiment on NCI-H522 lung it was 31.4 µM; with UACC-62 melanoma, 32.3 µM. For the same compound, the results for the total growth inhibition concentration (TGI) in the experiment on SF-295 CNS, in the experiment on K-562 leukemia and with SK-OV-3 ovarian were 45.7 µM, 75.7 µM and over 100 µM, respectively.
In the case of `O=C(CCCCCCC(=O)N/N=C/c1ccc(N(c2ccccc2)c2ccccc2)cc1)NO`, the GI50 in the experiment with MOLT-4 leukemia was 1.88 µM; in the experiment with UO-31 renal, 1.44 µM; with LOX IMVI melanoma it was 0.432 µM; in the experiment with KM12 colon, 2.72 µM; with ACHN renal it was 2.28 µM; in the experiment on NCI-H522 lung, 1.92 µM. For the same compound, the GI50 in the experiment on UACC-62 melanoma was 0.445 µM; in the experiment on SF-295 CNS, 1.77 µM; with SK-OV-3 ovarian it was 1.6 µM. Moreover, the TGI in the experiment with MOLT-4 leukemia was determined as 10.3 µM; with UO-31 renal, 4.4 µM; in the experiment on LOX IMVI melanoma, 1.61 µM; in the experiment with KM12 colon, 13.1 µM; in the experiment with ACHN renal, 7.39 µM; in the experiment with NCI-H522 lung, 6.92 µM. Moreover, the TGI in the experiment with UACC-62 melanoma was 1.98 µM; in the experiment on SF-295 CNS it was 4.47 µM; in the experiment on SK-OV-3 ovarian it was 5.29 µM.
